The supplement of paper PMC10307832

What was measured:
Assay in all cases: relative viability (nuclei count vs DMSO), 5 days (fraction); higher = more cells survive
CAL-12T = system: CAL-12T
Method in brief: (§1)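 For relative viability, nuclei counts in treated wells were divided by those in vehicle wells. Lung cancer cell lines had been pin-tool dosed in 1536-well plates the day after seeding and cultured for 5 days, then fixed and stained in one step (final 0.05% Triton X-100, 1% formaldehyde, 1 ug/ml Hoechst) and imaged at 4×. Doses were one drug alone or a fixed anchor-drug dose plus five library-drug doses (not always all listed) in √10 steps, and values are duplicate-plate medians.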

EKVX = system: EKVX
Method in brief: as §1

H3255 = system: H3255
Method in brief: as §1

HCC-15 = system: HCC-15
Method in brief: as §1

HCC-827 = system: HCC-827
Method in brief: as §1

LCLC-97TM1 = system: LCLC-97TM1
Method in brief: as §1

LK-2 = system: LK-2
Method in brief: as §1

NCI-H1355 = system: NCI-H1355
Method in brief: as §1

NCI-H1563 = system: NCI-H1563
Method in brief: as §1

NCI-H1650 = system: NCI-H1650
Method in brief: as §1

NCI-H1734 = system: NCI-H1734
Method in brief: as §1

NCI-H1755 = system: NCI-H1755
Method in brief: as §1

NCI-H1975 = system: NCI-H1975
Method in brief: as §1

NCI-H2228 = system: NCI-H2228
Method in brief: as §1

NCI-H2342 = system: NCI-H2342
Method in brief: as §1

NCI-H2405 = system: NCI-H2405
Method in brief: as §1

NCI-H322M = system: NCI-H322M
Method in brief: as §1

NCI-H520 = system: NCI-H520
Method in brief: as §1

NCI-H661 = system: NCI-H661
Method in brief: as §1

PC-14 = system: PC-14
Method in brief: as §1

PC-3 [JPC-3] = system: PC-3 [JPC-3]
Method in brief: as §1

RERF-LC-KJ = system: RERF-LC-KJ
Method in brief: as §1

## O=c1cc(-c2cccc3c2Sc2ccccc2S3)oc(N2CCOCC2)c1 + N=C(N)NC(=N)NCCc1ccccc1 [Phenformin] (partner 250 µM)
CAL-12T; first compound 0.08 µM
  relative viability: 0.534
CAL-12T; first compound 0.253 µM
  relative viability: 0.603
CAL-12T; first compound 0.8 µM
  relative viability: 0.597
CAL-12T; first compound 2.53 µM
  relative viability: 0.514
CAL-12T; first compound 8 µM
  relative viability: 0.487
EKVX; first compound 0.08 µM
  relative viability: 0.191
EKVX; first compound 0.253 µM
  relative viability: 0.237
EKVX; first compound 0.8 µM
  relative viability: 0.218
EKVX; first compound 2.53 µM
  relative viability: 0.209
EKVX; first compound 8 µM
  relative viability: 0.265
H3255; first compound 0.08 µM
  relative viability: 0.323
H3255; first compound 0.253 µM
  relative viability: 0.393
H3255; first compound 0.8 µM
  relative viability: 0.339
H3255; first compound 2.53 µM
  relative viability: 0.338
H3255; first compound 8 µM
  relative viability: 0.39
HCC-15; first compound 0.08 µM
  relative viability: 0.394
HCC-15; first compound 0.253 µM
  relative viability: 0.608
HCC-15; first compound 0.8 µM
  relative viability: 0.468
HCC-15; first compound 2.53 µM
  relative viability: 0.472
HCC-15; first compound 8 µM
  relative viability: 0.503
HCC-827; first compound 0.08 µM
  relative viability: 0.396
HCC-827; first compound 0.253 µM
  relative viability: 0.452
HCC-827; first compound 0.8 µM
  relative viability: 0.402
HCC-827; first compound 2.53 µM
  relative viability: 0.306
HCC-827; first compound 8 µM
  relative viability: 0.408
LCLC-97TM1; first compound 0.08 µM
  relative viability: 0.403
LCLC-97TM1; first compound 0.253 µM
  relative viability: 0.361
LCLC-97TM1; first compound 0.8 µM
  relative viability: 0.475
LCLC-97TM1; first compound 2.53 µM
  relative viability: 0.418
LCLC-97TM1; first compound 8 µM
  relative viability: 0.496
LK-2; first compound 0.08 µM
  relative viability: 0.582
LK-2; first compound 0.253 µM
  relative viability: 0.551
LK-2; first compound 0.8 µM
  relative viability: 0.524
LK-2; first compound 2.53 µM
  relative viability: 0.29
LK-2; first compound 8 µM
  relative viability: 0.381
NCI-H1355; first compound 0.08 µM
  relative viability: 0.47
NCI-H1355; first compound 0.253 µM
  relative viability: 0.479
NCI-H1355; first compound 0.8 µM
  relative viability: 0.421
NCI-H1355; first compound 2.53 µM
  relative viability: 0.429
NCI-H1355; first compound 8 µM
  relative viability: 0.409
NCI-H1563; first compound 0.08 µM
  relative viability: 0.626
NCI-H1563; first compound 0.253 µM
  relative viability: 0.689
NCI-H1563; first compound 0.8 µM
  relative viability: 0.617
NCI-H1563; first compound 2.53 µM
  relative viability: 0.633
NCI-H1563; first compound 8 µM
  relative viability: 0.611
NCI-H1650; first compound 0.08 µM
  relative viability: 0.379
NCI-H1650; first compound 0.253 µM
  relative viability: 0.561
NCI-H1650; first compound 0.8 µM
  relative viability: 0.434
NCI-H1650; first compound 2.53 µM
  relative viability: 0.263
NCI-H1650; first compound 8 µM
  relative viability: 0.365
NCI-H1734; first compound 0.08 µM
  relative viability: 0.36
NCI-H1734; first compound 0.253 µM
  relative viability: 0.45
NCI-H1734; first compound 0.8 µM
  relative viability: 0.417
NCI-H1734; first compound 8 µM
  relative viability: 0.436
NCI-H1755; first compound 0.08 µM
  relative viability: 0.625
NCI-H1755; first compound 0.253 µM
  relative viability: 0.694
NCI-H1755; first compound 0.8 µM
  relative viability: 0.597
NCI-H1755; first compound 2.53 µM
  relative viability: 0.545
NCI-H1755; first compound 8 µM
  relative viability: 0.653
NCI-H1975; first compound 0.08 µM
  relative viability: 0.42
NCI-H1975; first compound 0.253 µM
  relative viability: 0.488
NCI-H1975; first compound 0.8 µM
  relative viability: 0.418
NCI-H1975; first compound 2.53 µM
  relative viability: 0.386
NCI-H1975; first compound 8 µM
  relative viability: 0.418
NCI-H2228; first compound 0.08 µM
  relative viability: 0.346
NCI-H2228; first compound 0.253 µM
  relative viability: 0.25
NCI-H2228; first compound 0.8 µM
  relative viability: 0.426
NCI-H2228; first compound 2.53 µM
  relative viability: 0.267
NCI-H2228; first compound 8 µM
  relative viability: 0.277
NCI-H2342; first compound 0.08 µM
  relative viability: 0.526
NCI-H2342; first compound 0.253 µM
  relative viability: 0.62
NCI-H2342; first compound 0.8 µM
  relative viability: 0.542
NCI-H2342; first compound 2.53 µM
  relative viability: 0.557
NCI-H2342; first compound 8 µM
  relative viability: 0.608
NCI-H2405; first compound 0.08 µM
  relative viability: 0.354
NCI-H2405; first compound 0.253 µM
  relative viability: 0.372
NCI-H2405; first compound 0.8 µM
  relative viability: 0.45
NCI-H2405; first compound 2.53 µM
  relative viability: 0.385
NCI-H2405; first compound 8 µM
  relative viability: 0.415
NCI-H322M; first compound 0.08 µM
  relative viability: 0.738
NCI-H322M; first compound 0.253 µM
  relative viability: 0.764
NCI-H322M; first compound 0.8 µM
  relative viability: 0.742
NCI-H322M; first compound 2.53 µM
  relative viability: 0.632
NCI-H322M; first compound 8 µM
  relative viability: 0.688
NCI-H520; first compound 0.08 µM
  relative viability: 0.505
NCI-H520; first compound 0.253 µM
  relative viability: 0.507
NCI-H520; first compound 0.8 µM
  relative viability: 0.479
NCI-H520; first compound 2.53 µM
  relative viability: 0.372
NCI-H520; first compound 8 µM
  relative viability: 0.619
NCI-H661; first compound 0.08 µM
  relative viability: 0.269
NCI-H661; first compound 0.253 µM
  relative viability: 0.26
NCI-H661; first compound 0.8 µM
  relative viability: 0.271
NCI-H661; first compound 2.53 µM
  relative viability: 0.267
NCI-H661; first compound 8 µM
  relative viability: 0.259
PC-14; first compound 0.08 µM
  relative viability: 0.553
PC-14; first compound 0.253 µM
  relative viability: 0.479
PC-14; first compound 0.8 µM
  relative viability: 0.54
PC-14; first compound 8 µM
  relative viability: 0.746
PC-3 [JPC-3]; first compound 0.08 µM
  relative viability: 0.473
PC-3 [JPC-3]; first compound 0.253 µM
  relative viability: 0.458
PC-3 [JPC-3]; first compound 0.8 µM
  relative viability: 0.514
PC-3 [JPC-3]; first compound 2.53 µM
  relative viability: 0.448
PC-3 [JPC-3]; first compound 8 µM
  relative viability: 0.495
RERF-LC-KJ; first compound 0.08 µM
  relative viability: 0.4
RERF-LC-KJ; first compound 0.253 µM
  relative viability: 0.426
RERF-LC-KJ; first compound 0.8 µM
  relative viability: 0.465
RERF-LC-KJ; first compound 2.53 µM
  relative viability: 0.444
RERF-LC-KJ; first compound 8 µM
  relative viability: 0.406
